Experimental data published in patent EP4603105A1, “PHARMACEUTICAL COMPOSITION CONTAINING CYCLIC COMPOUND HAVING SELECTIVE KRAS INHIBITORY EFFECT AGAINST HRAS AND NRAS” (CHUGAI SEIYAKU KABUSHIKI KAISHA, priority 2022, dated 2024).
*1 amine or outer side, *2 acyl side, *3 side chain or, on linkers, in order; H or OH if unused. Where a SMILES comes first, the peptide text is derived from it. Bridges are numbered along the chain shown (N, C = ends). [ ]: non-standard residue; d: D form. The star is where a group is joined. hPhe(3-Cl-4-CF3) = N[C@@H](CCc1ccc(C(F)(F)F)c(Cl)c1)C(=O)O; NPrPhe(4-CF3) = CCCN[C@@H](Cc1ccc(C(F)(F)F)cc1)C(=O)O; NEtPhe(4-CF3) = CCN[C@@H](Cc1ccc(C(F)(F)F)cc1)C(=O)O; X32 = Cc1ccc(C[C@@H](C(=O)[*:2])N(CC2CCCC2)[*:1])cc1; NPrPhe(4-Me) = CCCN[C@@H](Cc1ccc(C)cc1)C(=O)O; NMeGly(cPent) = CN[C@H](C(=O)O)C1CCCC1; Pro(4,4-F2) = O=C(O)[C@@H]1CC(F)(F)CN1; NMeD = CN[C@@H](CC(=O)O)C(=O)O; NMeL = CN[C@@H](CC(C)C)C(=O)O; Ac6c = NC1(C(=O)O)CCCCC1; Morpholide = C1CN(*)CCO1; Ac5c = NC1(C(=O)O)CCCC1; Aze = O=C(O)[C@@H]1CCN1; NEtG = CCNCC(=O)O; Sar = CNCC(=O)O

Columns and labels:
[1] = biological target: GDP-bound NRAS wild-type protein (Homo sapiens, UniProt P01111); assay: Binding to NRAS by surface plasmon resonance (SPR), KD and KD ratio to KRAS
How it was run: (§1)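 Affinity is measured by surface plasmon resonance at 30°C against captured, GDP-loaded RAS carrying a biotinylated Avi tag. Compounds are titrated by single-cycle kinetics, and KD comes from a 1:1 fit.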

HRAS wild-type protein = HRAS wild-type protein (Homo sapiens, UniProt P01112); assay: Binding to HRAS by surface plasmon resonance (SPR), KD and KD ratio to KRAS
How it was run: as §1

[2] = tested on: human lung cancer strain NCI-H441; assay type: cell-based
How it was run: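 Readout: […] after the ATP-based reagent. Compound: serial dilutions in dimethyl sulfoxide.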

[3] = ratio of KD for GDP-bound NRAS wild-type protein to KD for KRAS
[4] = ratio of KD for HRAS wild-type protein to KD for KRAS
[5] = ratio of the KD value with respect to GDP-bound NRAS wild-type protein to the KD value with respect to KRAS
[6] = ratio of the KD value with respect to HRAS wild-type protein to the KD value with respect to KRAS

Sequence of HRAS wild-type protein (P01112 whole entry): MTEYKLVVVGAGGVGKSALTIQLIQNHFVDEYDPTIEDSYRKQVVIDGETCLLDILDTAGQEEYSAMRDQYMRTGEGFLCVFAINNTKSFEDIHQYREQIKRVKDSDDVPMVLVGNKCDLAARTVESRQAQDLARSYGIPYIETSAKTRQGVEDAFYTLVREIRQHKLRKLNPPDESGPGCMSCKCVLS
Sequence of GDP-bound NRAS wild-type protein (P01111 whole entry): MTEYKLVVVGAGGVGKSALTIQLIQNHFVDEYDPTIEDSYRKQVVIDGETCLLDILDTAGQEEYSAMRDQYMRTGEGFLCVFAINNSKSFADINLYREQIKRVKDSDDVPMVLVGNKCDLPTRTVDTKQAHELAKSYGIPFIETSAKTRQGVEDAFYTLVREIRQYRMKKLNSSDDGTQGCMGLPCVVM

Row | SMILES | IC50 [2] [nM] | NRAS /KRAS [1, 3] | HRAS /KRAS (HRAS wild-type protein; [4]) | NRAS /KRAS [1, 5] | HRAS /KRAS (HRAS wild-type protein; [6])
1 | CC[C@H](C)[C@@H]1NC(=O)[C@H](CC(C)C)N(C)C(=O)C[C@@H](C(=O)N2CCOCC2)N(C)C(=O)[C@H](C2CCCC2)N(C)C(=O)C2(CCCCC2)NC(=O)[C@@H]2CCCN2C(=O)[C@H](CCc2ccc(C(F)(F)F)c(Cl)c2)NC(=O)CN(C)C(=O)[C@H](Cc2ccc(C(F)(F)F)cc2)N(CC)C(=O)CN(C)C(=O)CN(C)C1=O [PP0236] ([NMeL]I[Sar][Sar][NEtPhe(4-CF3)][Sar][hPhe(3-Cl-4-CF3)]P[Ac6c][NMeGly(cPent)][NMeD]-Morpholide; lactam N-11) | 20.3 | B (a compound having 3 or more and less than 10 is denoted as B) | C (A compound having a KD ratio of 0.1 or more and less than 3 is denoted as C) | – | –
2 | CC[C@H](C)[C@@H]1NC(=O)[C@H](CC(C)C)N(CC)C(=O)C[C@@H](C(=O)N2CCOCC2)N(C)C(=O)[C@H](C2CCCC2)N(C)C(=O)C2(CCCC2)NC(=O)[C@@H]2CCCN2C(=O)[C@H](CCc2cc(F)c(C(F)(F)F)c(F)c2)NC(=O)CN(C)C(=O)[C@H](Cc2ccc(C(F)(F)F)cc2)N2CCCCC[C@@H](C2=O)N(C)C(=O)CN(C)C1=O [PP0513] | 238 | – | – | B (a compound having 3 or more and less than 10 is denoted as B) | B (a compound having 3 or more and less than 10 is denoted as B)
3 | CCCN1C(=O)[C@@H]2CCN2C(=O)CN(C)C(=O)[C@H]([C@@H](C)CC)NC(=O)[C@H](CC(C)C)N(C)C(=O)C[C@@H](C(=O)N(C)C)NC(=O)[C@H](C2CCCC2)N(C)C(=O)C2(CCCC2)NC(=O)[C@@H]2CC(F)(F)CN2C(=O)[C@H](CCc2ccc(C(F)(F)F)c(Cl)c2)NC(=O)CN(C)C(=O)[C@@H]1Cc1ccc(C(F)(F)F)cc1 [PP0387] ([NMeL]I[Sar][Aze][NPrPhe(4-CF3)][Sar][hPhe(3-Cl-4-CF3)][Pro(4,4-F2)][Ac5c][NMeGly(cPent)]D-NMe2; lactam N-11) | 20 | – | – | C (A compound having a KD ratio of 0.1 or more and less than 3 is denoted as C) | B (a compound having 3 or more and less than 10 is denoted as B)
4 | CCO[C@@H]1C[C@H]2C(=O)NC3(CCC3)C(=O)N(C)[C@@H](C3CCCC3)C(=O)N(C)[C@H](C(=O)N3CCOCC3)CC(=O)N(C)[C@@H](CC)C(=O)N[C@@H]([C@@H](C)CC)C(=O)N(C)CC(=O)N(C)[C@H]3CCCCCN(C3=O)[C@@H](Cc3ccc(C(F)(F)F)cc3)C(=O)N(C)CC(=O)N[C@@H](CCc3cc(F)c(C(F)(F)F)c(F)c3)C(=O)N2C1 [PP0678] | 35.6 | – | – | B (a compound having 3 or more and less than 10 is denoted as B) | B (a compound having 3 or more and less than 10 is denoted as B)
5 | CC[C@H](C)[C@@H]1NC(=O)[C@@H]2CCC/C=C/c3ccc(cc3)C[C@@H](C(=O)N(C)CC(=O)N[C@@H](CCc3ccc(Cl)c(Cl)c3)C(=O)N3C[C@H](OC(C)C)C[C@H]3C(=O)NC3(CC(C)(C)C3)C(=O)N(C)[C@@H](C3CCCC3)C(=O)N(C)[C@H](C(=O)N(C)CC)CC(=O)N2C)N2CC/C=C\C[C@@H](C2=O)N(C)C(=O)CN(C)C1=O [PP2595] | 12.7 | A (a compound having 10 or more and less than 20 is denoted as A) | B (a compound having 3 or more and less than 10 is denoted as B) | – | –

Second part, led by results:

Row | IC50 [2] [nM] | SMILES | NRAS /KRAS [1, 3] | HRAS /KRAS (HRAS wild-type protein; [4]) | NRAS /KRAS [1, 5] | HRAS /KRAS (HRAS wild-type protein; [6])
6 | 26.1 | CCCN1C(=O)CN(C)C(=O)CN(C)C(=O)[C@H]([C@@H](C)CC)NC(=O)[C@H](CC(C)C)N(C)C(=O)C[C@@H](C(=O)N2CCOCC2)N(C)C(=O)[C@H](C2CCCC2)N(C)C(=O)C2(CCCC2)NC(=O)[C@@H]2CCCN2C(=O)[C@H](CCc2ccc(C(F)(F)F)c(Cl)c2)NC(=O)CN(CC)C(=O)[C@@H]1Cc1ccc(C)cc1 [PP0066] ([NMeL]I[Sar][Sar][NPrPhe(4-Me)][NEtG][hPhe(3-Cl-4-CF3)]P[Ac5c][NMeGly(cPent)][NMeD]-Morpholide; lactam N-11) | B (a compound having 3 or more and less than 10 is denoted as B) | C (A compound having a KD ratio of 0.1 or more and less than 3 is denoted as C) | – | –
7 | 68.9 | CC[C@H](C)[C@@H]1NC(=O)[C@H](CC(C)C)N(C)C(=O)C[C@@H](C(=O)N2CCOCC2)N(C)C(=O)[C@H](C2CCCC2)N(C)C(=O)C2(CCCC2)NC(=O)[C@@H]2CCCN2C(=O)[C@H](CCc2ccc(C(F)(F)F)c(Cl)c2)NC(=O)CN(C)C(=O)[C@H](Cc2ccc(C)cc2)N(CC2CCCC2)C(=O)CN(C)C(=O)CN(C)C1=O [PP0096] ([NMeL]I[Sar][Sar][X32][Sar][hPhe(3-Cl-4-CF3)]P[Ac5c][NMeGly(cPent)][NMeD]-Morpholide; lactam N-11) | C (A compound having a KD ratio of 0.1 or more and less than 3 is denoted as C) | C (A compound having a KD ratio of 0.1 or more and less than 3 is denoted as C) | – | –
